Experiments:
Zymoseptoria tritici = test: Leaf blotch of wheat (SEPTTR) disease control on wheat seedlings; assay type: in vivo; design: key to SEPTTR 1DP, HV activity at 100 ppm (% control rating) / SEPTTR 3DC, HV activity at 100 ppm (% control rating) / SEPTTR disease control, 1DP / SEPTTR disease control, 3DC / SEPTTR 1DP disease control rating, HV activity / SEPTTR 3DC disease control rating, HV activity / SEPTTR 3DC, LV activity at 125.1 g/H (% Control rating) / SEPTTR 1DP, LV activity at 125.1 g/H (% Control rating) / SEPTTR 1DP disease control rating, LV activity at 125.1 g/H / SEPTTR 3DC disease control rating, LV activity at 125.1 g/H / SEPTTR 3DC disease control rating, HV activity at 100 ppm / SEPTTR 1DP disease control rating, HV activity at 100 ppm / HV activity at 100 ppm SEPTTR 3DC (disease control rating) / HV activity at 100 ppm SEPTTR 1DP (disease control rating) / LV activity at 125.1 g/H SEPTTR 1DP (disease control rating) / LV activity at 125.1 g/H SEPTTR 3DC (disease control rating): A: > 80; B: ≤ 80; C: Not Tested; D: No Activity Observed in the Reported Assay; conditions: for SEPTTR 1DP disease control rating, HV activity / SEPTTR 3DC disease control rating, HV activity: HV application at 100 ppm; for SEPTTR 1DP disease control rating, HV activity / SEPTTR 3DC disease control rating, HV activity / LV activity at 125.1 g/H SEPTTR 1DP (disease control rating) / LV activity at 125.1 g/H SEPTTR 3DC (disease control rating): wheat leaf blotch
Experimental: (§1) All fungicides were evaluated using the aforementioned method for their activity vs. all target diseases, unless stated otherwise. Wheat leaf blotch and brown rust activity were also evaluated using track spray applications, in which case the fungicides were formulated as EC formulations, containing 0.1% Trycol 5941 in the spray solutions. Wheat plants (variety Yuma) were grown from seed in a greenhouse in 50% mineral soil/50% soil-less Metro mix until the first leaf was fully emerged, with 7-10 seedlings per pot. These plants were inoculated with an aqueous spore suspension of Zymoseptoria tritici either prior to or after fungicide treatments. After inoculation the plants were kept in 100% relative humidity (one day in a dark dew chamber followed by two to three days in a lighted dew chamber at 20° C.) to permit spores to germinate and infect the leaf. The plants were then transferred to a greenhouse set at 20° C. for disease to develop. When disease symptoms were fully expressed on the 1st leaves of untreated plants, infection levels were assessed on a scale of 0 to 100 percent disease severity. Percent disease control was calculated using the ratio of disease severity on treated plants relative to untreated plants.

Puccinia triticina = test: Wheat brown rust (PUCCRT) disease control on wheat seedlings; assay type: in vivo; design: key to PUCCRT 3DC, HV activity at 100 ppm (% control rating) / PUCCRT disease control, 3DC / PUCCRT 1DP disease control rating, HV activity / PUCCRT 3DC disease control rating, HV activity / PUCCRT 3DC, LV activity at 125.1 g/H (% Control rating) / PUCCRT 1DP, LV activity at 125.1 g/H (% Control rating) / PUCCRT 3DC disease control rating, LV activity at 125.1 g/H / PUCCRT 1DP disease control rating, LV activity at 125.1 g/H / PUCCRT 3DC disease control rating, HV activity at 100 ppm / PUCCRT 1DP disease control rating, HV activity at 100 ppm / HV activity at 100 ppm PUCCRT 3DC (disease control rating) / LV activity at 125.1 g/H PUCCRT 1DP (disease control rating) / LV activity at 125.1 g/H PUCCRT 3DC (disease control rating): A: > 80; B: ≤ 80; C: Not Tested; D: No Activity Observed in the Reported Assay; conditions: for PUCCRT 1DP disease control rating, HV activity / PUCCRT 3DC disease control rating, HV activity: HV application at 100 ppm; for PUCCRT 1DP disease control rating, HV activity / PUCCRT 3DC disease control rating, HV activity / LV activity at 125.1 g/H PUCCRT 1DP (disease control rating) / LV activity at 125.1 g/H PUCCRT 3DC (disease control rating): wheat brown rust
Experimental: as §1, with “plants. Example B: Evaluation of Fungicidal Activity: Wheat Brown Rust (Puccinia triticina; Synonym: Puccinia recondita f. sp. Tritici; Bayer Code PUCCRT) Wheat plants (variety Yuma) were grown from seed in a greenhouse in 50% mineral soil/50% soil-less Metro mix until the first leaf was fully emerged, with 7-10 seedlings per pot. These plants were inoculated with an aqueous spore suspension of Puccinia triticina either prior to or after fungicide treatments. […] The plants were then transferred to a greenhouse set at 24° C. for disease to develop. Fungicide formulation, application and disease assessment followed the procedures as described in the Example A.” for “plants.”

[1] = low volume application, 125.1 g/H, 1 Day Protectant
[2] = low volume application, 125.1 g/H, 3 Day Curative
[3] = low volume application, 125.1 g/H, 1 day protectant
[4] = low volume application, 125.1 g/H, 3 day curative

Compound	SEPTTR 1DP disease control rating, HV activity (Zymoseptoria tritici; 1 Day Protectant)	SEPTTR 3DC disease control rating, HV activity (Zymoseptoria tritici; 3 Day Curative)	PUCCRT 1DP disease control rating, HV activity (Puccinia triticina; 1 Day Protectant)	PUCCRT 3DC disease control rating, HV activity (Puccinia triticina; 3 Day Curative)	LV activity at 125.1 g/H SEPTTR 1DP (disease control rating) (Zymoseptoria tritici; [1])	LV activity at 125.1 g/H SEPTTR 3DC (disease control rating) (Zymoseptoria tritici; [2])	LV activity at 125.1 g/H PUCCRT 1DP (disease control rating) (Puccinia triticina; [1])	LV activity at 125.1 g/H PUCCRT 3DC (disease control rating) (Puccinia triticina; [2])	further results
CCCOC(CC)C(Oc1ccccc1)C(C)OC(=O)C(NC(=O)c1nccc(OC)c1OC(C)=O)C(C)C (stereo not drawn) [Cmpd 451]	B (≤ 80)	A (> 80)	A (> 80)	A (> 80)	–	–	–	–	–
CCOc1ccnc(C(=O)N[C@@H](C)C(=O)O[C@@H](C)[C@@H](CC(C)C)Oc2cccc(Cl)c2)c1OC(C)=O [Cmpd 1109]	–	–	–	–	D	B (≤ 80)	B (≤ 80)	B (≤ 80)	–
COc1ccnc(C(=O)N[C@H](C)C(=O)O[C@H](C)[C@@H](Oc2ccccc2)c2ccccc2)c1O [Cmpd 352]	D	B (≤ 80)	D	D	–	–	–	–	–
COc1ccnc(C(=O)N[C@@H](C)C(=O)O[C@@H](C)[C@H](Oc2ccc(Cl)cc2Cl)C(C)C)c1OCOC(C)=O [Cmpd 562]	–	–	–	–	–	–	–	–	SEPTTR 1DP, LV activity at 125.1 g/H (% Control rating) (Zymoseptoria tritici; [1]): D; SEPTTR 3DC, LV activity at 125.1 g/H (% Control rating) (Zymoseptoria tritici; [2]): A (> 80); PUCCRT 1DP, LV activity at 125.1 g/H (% Control rating) (Puccinia triticina; [1]): A (> 80); PUCCRT 3DC, LV activity at 125.1 g/H (% Control rating) (Puccinia triticina; [2]): A (> 80)
COc1ccnc(C(=O)N[C@@H](C)C(=O)O[C@@H](C)[C@H](OCC2CC2)c2cccc(-c3ccccc3)c2)c1OC(C)=O [Cmpd 875]	–	–	–	–	–	–	–	–	SEPTTR 1DP disease control rating, LV activity at 125.1 g/H (Zymoseptoria tritici; [3]): A (> 80); SEPTTR 3DC disease control rating, LV activity at 125.1 g/H (Zymoseptoria tritici; [4]): A (> 80); PUCCRT 1DP disease control rating, LV activity at 125.1 g/H (Puccinia triticina; [3]): A (> 80); PUCCRT 3DC disease control rating, LV activity at 125.1 g/H (Puccinia triticina; [4]): A (> 80)
CCOc1ccnc(C(=O)N[C@@H](C)C(=O)O[C@@H](C)[C@H](Oc2ccccc2)C(C)C)c1O [Cmpd 418]	B (≤ 80)	D	B (≤ 80)	A (> 80)	–	–	–	–	–
CCC[C@@H](OCC1CC1)[C@H](C)OC(=O)[C@H](C)NC(=O)c1nccc(OC)c1OC(C)=O [Cmpd 1057]	–	–	–	–	B (≤ 80)	B (≤ 80)	B (≤ 80)	A (> 80)	–
C=CC[C@@H](Oc1cccc(Cl)c1)[C@H](C)OC(=O)[C@H](C)NC(=O)c1nccc(OC)c1OCOC(C)=O [Cmpd 1083]	–	–	–	–	B (≤ 80)	A (> 80)	A (> 80)	A (> 80)	–
CCC(C)C(NC(=O)c1nccc(OC)c1O)C(=O)OC(C)C(Oc1cc(F)ccc1F)C(C)C (stereo not drawn) [Cmpd 395]	B (≤ 80)	B (≤ 80)	B (≤ 80)	D	–	–	–	–	–

Reference: patent US20180000085A1, “USE OF PICOLINAMIDE COMPOUNDS WITH FUNGICIDAL ACTIVITY” (DOW AGROSCIENCES LLC, priority 2014, published 2018)
